One may read the IC50 as the concentration at which inhibition is half-maximal.

Some results are limits rather than exact numbers.

The target of the first assay is T1, Human Factor D (Homo sapiens, UniProt P00746).
T1 construct: purified from human serum; purchased Complement Technology, Inc; host or cells: human serum (natural protein, not recombinant)
T1 sequence (P00746 26-253): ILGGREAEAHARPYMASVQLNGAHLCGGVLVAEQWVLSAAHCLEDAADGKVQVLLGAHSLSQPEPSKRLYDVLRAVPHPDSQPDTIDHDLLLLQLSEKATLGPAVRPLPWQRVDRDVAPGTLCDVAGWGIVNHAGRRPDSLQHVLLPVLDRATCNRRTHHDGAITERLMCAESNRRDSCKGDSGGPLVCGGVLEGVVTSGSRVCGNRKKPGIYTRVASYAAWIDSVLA
In words: Human Factor D Assay. Particulars: Human Factor D 80 nM, substrate Z-L-Lys-SBzl, assay of Example 3; read-out: IC50 (Stars). The class given is biochemical. Here is the method: Human Factor D (purified from human serum, Complement Technology, Inc.) at 80 nM final concentration is incubated with test compound at various concentrations for 5 min at room temperature in 50 mM Tris, 1M NaCl, pH 7.5. A synthetic substrate Z-L-Lys-SBzl and DTNB (Ellman's reagent) are added to final concentrations of 100 μM each. […] IC50 values are calculated by nonlinear regression of complement Factor D reaction rates as a function of test compound concentration.
With `CC(=O)c1nn(CC(=O)N2C[C@H](F)C[C@H]2C(=O)Nc2cccc(Br)n2)c2ccc(-c3ccc(C)c(F)c3)cc12` [Compound 34, (2S,4R)-1-(2-(3-Acetyl-5-(3-fluoro-4-methylphenyl)-1H-indazol-1-yl)acetyl)-N-(6-bromopyridin-2-yl)-4-fluoropyrrolidine-2-carboxamide], the IC50 was less than 1000 nM.
On the same count and under the same terms, the figure for `CONC(=O)c1nn(CC(=O)N2[C@H](C(=O)Nc3nc(Br)ccc3C)C[C@@]3(C)C[C@@H]23)c2ccc(-c3cnc(C)nc3)cc12` [Compound 9, 1-(2-((1R,3S,5R)-3-((6-Bromo-3-methylpyridin-2-yl)carbamoyl)-5-methyl-2-azabicyclo[3.1.0]hexan-2-yl)-2-oxoethyl)-N-methoxy-5-(2-methylpyrimidin-5-yl)-1H-indazole-3-carboxamide] is less than 1000 nM.

Staying with this assay, now noted: Human Factor D 80 nM, substrate Z-L-Lys-SBzl; Table 2; read-out: IC50 (Stars).
Consider `CC(=O)c1nn(CC(=O)N2[C@H](C(=O)Nc3nc(Br)ccc3C)C[C@@]3(C)C[C@@H]23)c2c(C)cc(-c3cnc(C(N)=O)nc3)cc12` [Compound 53, (1R,3S,5R)-2-(2-(3-acetyl-5-(2-carbamoylpyrimidin-5-yl)-7-methyl-1H-indazol-1-yl)acetyl)-N-(6-bromo-3-methylpyridin-2-yl)-5-methyl-2-azabicyclo[3.1.0]hexane-3-carboxamide], for which the IC50 is less than 1000 nM.
On the same count and under the same terms, with `CC(=O)c1nn(CC(=O)N2[C@H](C(=O)Nc3cncc(Br)n3)C[C@@]3(C)C[C@@H]23)c2c(C)cc(-c3cnc(C(C)O)nc3)cc12` (stereo partly drawn) [Compound 109, (1R,3S,5R)-2-(2-(3-acetyl-5-(2-(1-hydroxyethyl)pyrimidin-5-yl)-7-methyl-11H-indazol-1-yl)acetyl)-N-(6-bromopyrazin-2-yl)-5-methyl-2-azabicyclo[3.1.0]hexane-3-carboxamide] the figure was less than 1000 nM; with `COC(=O)c1ncc(-c2cc(C)c3c(c2)c(C(C)=O)nn3CC(=O)N2[C@H](C(=O)Nc3nc(Br)c(F)cc3C)C[C@@]3(C)C[C@@H]23)cn1` [Compound 44, Methyl 5-(3-acetyl-1-(2-((1R,3S,5R)-3-((6-bromo-5-fluoro-3-methylpyridin-2-yl)carbamoyl)-5-methyl-2-azabicyclo[3.1.0]hexan-2-yl)-2-oxoethyl)-7-methyl-1H-indazol-5-yl)pyrimidine-2-carboxylate], less than 1000 nM.
Consider `CC(=O)c1nn(CC(=O)N2[C@H](C(=O)Nc3cnc(C)c(Br)n3)C[C@@]3(C)C[C@@H]23)c2c(C)cc(-c3cnc(CO)nc3)cc12` [Compound 94, (1R,3S,5R)-2-(2-(3-acetyl-5-(2-(hydroxymethyl)pyrimidin-5-yl)-7-methyl-1H-indazol-1-yl)acetyl)-N-(6-bromo-5-methylpyrazin-2-yl)-5-methyl-2-azabicyclo[3.1.0]hexane-3-carboxamide], for which the concentration for half-maximal inhibition (IC50) is less than 1000 nM.
With `CC(=O)c1nn(CC(=O)N2C[C@H]3C[C@H]3[C@H]2C(=O)Nc2nc(Br)ccc2Cl)c2c(C)cc(-c3cnc(CO)nc3)cc12` [Compound 75, (1R,2S,5S)-3-(2-(3-acetyl-5-(2-(hydroxymethyl)pyrimidin-5-yl)-7-methyl-11H-indazol-1-yl)acetyl)-N-(6-bromo-3-chloropyridin-2-yl)-3-azabicyclo[3.1.0]hexane-2-carboxamide], the concentration for half-maximal inhibition (IC50) was less than 1000 nM.
Take `CC(=O)c1nn(CC(=O)N2[C@H](C(=O)Nc3nc(Br)ccc3C)C[C@@]3(C)C[C@@H]23)c2c(C)cc(-c3cnc(C4(O)CC4)nc3)cc12` [Compound 169]: the concentration for half-maximal inhibition (IC50) is less than 1000 nM.
Regarding `Cc1cc(F)c(Br)nc1NC(=O)[C@@H]1C[C@@]2(C)C[C@H]2N1C(=O)Cn1nc(C(N)=O)c2cc(-c3cnc(CO)nc3)nc(C)c21` [Compound 167, (1R,3S,5R)—N-(6-bromo-5-fluoro-3-methylpyridin-2-yl)-2-(2-{3-carbamoyl-5-[2-(hydroxymethyl)pyrimidin-5-yl]-7-methylpyrazolo[3,4-c]pyridin-1-yl}acetyl)-5-methyl-2-azabicyclo[3.1.0]hexane-3-carboxamide], the half-inhibitory concentration (IC50) is less than 1000 nM.
The same measure, in the same setting: with `CC(=O)c1cn(CC(=O)N2[C@H](C(=O)Nc3cncc(Br)n3)C[C@@]3(C)C[C@@H]23)c2c(C)cc(-c3cnc(C(C)O)nc3)cc12` (stereo partly drawn) [Compound 159, (1R,3S,5R)-2-(2-(3-acetyl-5-(2-(1-hydroxyethyl)pyrimidin-5-yl)-7-methyl-1H-indol-1-yl)acetyl)-N-(6-bromopyrazin-2-yl)-5-methyl-2-azabicyclo[3.1.0]hexane-3-carboxamide] the figure was less than 1000 nM.
Same read-out and setting: with `CC(=O)c1nn(CC(=O)N2[C@H](C(=O)Nc3cncc(Br)n3)C[C@@]3(C)C[C@@H]23)c2c(C)cc(-c3cnc(CO)nc3)cc12` [Compound 48, (1R,3S,5R)-2-(2-(3-acetyl-5-(2-(hydroxymethyl)pyrimidin-5-yl)-7-methyl-11H-indazol-1-yl)acetyl)-N-(6-bromopyrazin-2-yl)-5-methyl-2-azabicyclo[3.1.0]hexane-3-carboxamide] the figure was less than 1000 nM; with `CC(=O)c1nn(CC(=O)N2[C@H](C(=O)N[C@H]3CCCCC3(F)F)C[C@@]3(C)C[C@@H]23)c2c(C)cc(-c3cnc(C)nc3)cc12` [Compound 149, (1R,3S,5R)-2-{2-[3-acetyl-7-methyl-5-(2-methylpyrimidin-5-yl)indazol-1-yl]acetyl}-N-[(1S)-2,2-difluorocyclohexyl]-5-methyl-2-azabicyclo[3.1.0]hexane-3-carboxamide], less than 1000 nM.
Turning to `CC(=O)c1cn(CC(=O)N2[C@H](C(=O)Nc3cc(F)cc(Br)n3)C[C@@]3(C)C[C@@H]23)c2c(C)cc(-c3cnc(C)nc3)cc12` [Compound 192, (1R,3S,5R)-2-(2-(3-acetyl-7-methyl-5-(2-methylpyrimidin-5-yl)-1H-indol-1-yl)acetyl)-N-(6-bromo-4-fluoropyridin-2-yl)-5-methyl-2-azabicyclo[3.1.0]hexane-3-carboxamide], the half-inhibitory concentration (IC50) was less than 1000 nM.
The same measure, in the same setting: with `CC(=O)c1cn(CC(=O)N2[C@H](C(=O)Nc3cncc(Br)n3)C[C@@]3(C)C[C@@H]23)c2c(C)cc(-c3cnc4cc(C)nn4c3)cc12` [Compound 210, (1R,3S,5R)-2-(2-(3-acetyl-7-methyl-5-(2-methylpyrazolo[1,5-a]pyrimidin-6-yl)-1H-indol-1-yl)acetyl)-N-(6-bromopyrazin-2-yl)-5-methyl-2-azabicyclo[3.1.0]hexane-3-carboxamide] the figure was less than 1000 nM; with `CC(=O)c1cn(CC(=O)N2C[C@H]3C[C@H]3[C@H]2C(=O)Nc2nc(Br)ccc2C)c2c(C)cc(-c3cnc(CO)nc3)cc12` [Compound 79, (1R,2S,5S)-3-(2-(3-acetyl-5-(2-(hydroxymethyl)pyrimidin-5-yl)-7-methyl-11H-indol-1-yl)acetyl)-N-(6-bromo-3-methylpyridin-2-yl)-3-azabicyclo[3.1.0]hexane-2-carboxamide], less than 1000 nM; with `CC(=O)c1nn(CC(=O)N2[C@H](C(=O)NCCc3cc[nH]n3)C[C@@]3(C)C[C@@H]23)c2c(C)cc(-c3cnc(C)nc3)cc12` [Compound 106, (1R,3S,5R)-2-{2-[3-acetyl-7-methyl-5-(2-methylpyrimidin-5-yl)indazol-1-yl]acetyl}-5-methyl-N-[2-(1H-pyrazol-3-yl)ethyl]-2-azabicyclo[3.1.0]hexane-3-carboxamide], less than 1000 nM.
The same measure, in the same setting: the figure for `CC(=O)c1cn(CC(=O)N2[C@H](C(=O)Nc3nc(Br)c(F)cc3C)C[C@@]3(C)C[C@@H]23)c2c(C3CC3)cc(-c3cnc(C)nc3)cc12` [Compound 162] is less than 1000 nM.

Source of the values: US20230022157A1 (Achillion Pharmaceuticals, Inc., priority 2018, published 2023).
